Test results taken from US20250034216A1, “STEREOSELECTIVE COVALENT LIGANDS FOR ONCOGENIC AND IMMUNOLOGICAL PROTEINS” (The Scripps Research Institute, priority 2021, published 2025).

Assays:
[1] = target: T1, DENND2B_C804 (Homo sapiens, UniProt P78524); experiment: IA-DTB cysteine engagement; format: binding; conditions: 22Rv1 cells, 20 μM probe, 1 h, relative to DMSO
T1 construct: endogenous in cells; host or cells: 22Rv1
T1 sequence (P78524 1-1137): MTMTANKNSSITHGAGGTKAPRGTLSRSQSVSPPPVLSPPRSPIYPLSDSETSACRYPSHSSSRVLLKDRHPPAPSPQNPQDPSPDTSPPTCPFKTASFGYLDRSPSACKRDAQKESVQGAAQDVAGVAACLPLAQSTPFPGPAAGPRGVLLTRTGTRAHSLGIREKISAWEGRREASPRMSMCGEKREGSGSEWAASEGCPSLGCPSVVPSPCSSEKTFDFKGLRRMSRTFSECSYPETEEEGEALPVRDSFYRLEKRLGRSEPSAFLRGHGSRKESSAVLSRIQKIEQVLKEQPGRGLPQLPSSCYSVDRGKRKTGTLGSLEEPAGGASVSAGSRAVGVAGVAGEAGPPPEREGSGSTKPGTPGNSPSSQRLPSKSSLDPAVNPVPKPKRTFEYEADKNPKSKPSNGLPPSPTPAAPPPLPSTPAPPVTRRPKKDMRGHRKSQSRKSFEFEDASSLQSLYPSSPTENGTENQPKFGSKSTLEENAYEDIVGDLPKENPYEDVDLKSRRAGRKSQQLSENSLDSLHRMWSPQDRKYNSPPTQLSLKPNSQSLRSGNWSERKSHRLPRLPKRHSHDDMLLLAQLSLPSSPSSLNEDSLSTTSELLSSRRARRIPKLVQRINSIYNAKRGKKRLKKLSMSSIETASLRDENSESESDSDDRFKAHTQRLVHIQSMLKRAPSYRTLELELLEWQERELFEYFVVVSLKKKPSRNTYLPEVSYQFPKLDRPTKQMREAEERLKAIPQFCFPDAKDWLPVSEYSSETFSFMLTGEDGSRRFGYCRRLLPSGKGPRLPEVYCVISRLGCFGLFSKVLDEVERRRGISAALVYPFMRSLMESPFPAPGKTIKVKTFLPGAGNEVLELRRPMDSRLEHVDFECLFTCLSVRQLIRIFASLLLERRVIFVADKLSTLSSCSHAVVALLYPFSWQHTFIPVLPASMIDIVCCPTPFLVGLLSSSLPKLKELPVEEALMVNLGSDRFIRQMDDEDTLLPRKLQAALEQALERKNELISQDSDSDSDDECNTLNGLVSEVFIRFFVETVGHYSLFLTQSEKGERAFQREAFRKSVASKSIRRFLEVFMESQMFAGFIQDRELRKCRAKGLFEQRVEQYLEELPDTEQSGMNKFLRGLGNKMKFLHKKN
Outline: (§1)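 Competitive chemoproteomics: residual cysteine reactivity toward IA-DTB in lysates from probe-treated cells was quantified by TMT reporter ions relative to DMSO-treated controls. Replicates sharing cell line, probe, concentration and duration were averaged.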

[2] = target: T2, C3orf33_C275 (Homo sapiens, UniProt Q6P1S2); experiment: IA-DTB cysteine engagement; format: binding; conditions: 22Rv1 cells, 20 μM probe, 1 h, relative to DMSO
T2 construct: endogenous in cells; host or cells: 22Rv1
T2 sequence (Q6P1S2 1-294): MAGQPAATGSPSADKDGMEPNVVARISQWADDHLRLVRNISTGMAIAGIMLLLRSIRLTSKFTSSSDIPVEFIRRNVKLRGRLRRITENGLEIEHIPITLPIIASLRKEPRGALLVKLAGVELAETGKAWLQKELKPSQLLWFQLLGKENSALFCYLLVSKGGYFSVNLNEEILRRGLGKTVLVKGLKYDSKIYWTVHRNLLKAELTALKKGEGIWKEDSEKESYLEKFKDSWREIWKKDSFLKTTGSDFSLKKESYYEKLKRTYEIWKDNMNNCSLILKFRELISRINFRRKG
Outline: as §1

| Compound | % engagement DENND2B_C804 [1] [%] | % engagement C3orf33_C275 [2] [%] |
| --- | --- | --- |
| C=CC(=O)N1C[C@@H](c2ccc(Br)cc2)[C@H]1C(=O)Nc1cccc2cccnc12 [MY-1A, (2S,3R)-1-acryloyl-3-(4-bromophenyl)-N-(quinolin-8-yl)azetidine-2-carboxamide] | 29.25 | 83.5 |
| C=CC(=O)N1C[C@H](c2ccc(Br)cc2)[C@@H]1C(=O)Nc1cccc2cccnc12 [MY-1B, (2R,3S)-1-acryloyl-3-(4-bromophenyl)-N-(quinolin-8-yl)azetidine-2-carboxamide] | 80.25 | 83 |
| C=CC(=O)N1C[C@H](c2ccc(Br)cc2)[C@H]1C(=O)Nc1cccc2cccnc12 [MY-3A, (2S,3S)-1-acryloyl-3-(4-bromophenyl)-N-(quinolin-8-yl)azetidine-2-carboxamide] | −5.25 | 85 |
| C=CC(=O)N1C[C@H](c2ccc(Br)cc2)[C@H]1C(=O)Nc1cccc2cccnc12 [MY-3B, (2S,3S)-1-acryloyl-3-(4-bromophenyl)-N-(quinolin-8-yl)azetidine-2-carboxamide] | −5.75 | 84 |
